Assay results as given in ChEMBL document CHEMBL5291721, “A preclinical secondary pharmacology resource illuminates target-adverse drug reaction associations of marketed drugs” (Nat Commun, 2023).

Key:
[1] = target: Beta-2 adrenergic receptor (Homo sapiens, UniProt P07550); assay type: functional, cell-based
Vasopressin V1a receptor = Vasopressin V1a receptor (Homo sapiens, UniProt P37288)
B2 bradykinin receptor = target: T1, B2 bradykinin receptor (Homo sapiens, UniProt P30411)
T1 sequence (P30411 whole entry): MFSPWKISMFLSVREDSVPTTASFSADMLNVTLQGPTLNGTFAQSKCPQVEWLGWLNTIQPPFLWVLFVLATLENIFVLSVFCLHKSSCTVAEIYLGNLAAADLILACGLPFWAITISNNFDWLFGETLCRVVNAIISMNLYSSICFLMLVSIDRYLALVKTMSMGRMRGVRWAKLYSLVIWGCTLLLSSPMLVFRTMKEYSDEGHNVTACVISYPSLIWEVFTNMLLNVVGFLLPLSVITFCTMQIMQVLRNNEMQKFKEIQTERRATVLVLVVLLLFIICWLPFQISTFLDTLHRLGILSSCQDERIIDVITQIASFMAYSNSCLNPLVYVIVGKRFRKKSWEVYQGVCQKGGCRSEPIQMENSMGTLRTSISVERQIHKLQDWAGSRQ

[2] = target: T2, Muscarinic acetylcholine receptor M1 (Homo sapiens, UniProt P11229); assay type: functional
T2 sequence (P11229 whole entry): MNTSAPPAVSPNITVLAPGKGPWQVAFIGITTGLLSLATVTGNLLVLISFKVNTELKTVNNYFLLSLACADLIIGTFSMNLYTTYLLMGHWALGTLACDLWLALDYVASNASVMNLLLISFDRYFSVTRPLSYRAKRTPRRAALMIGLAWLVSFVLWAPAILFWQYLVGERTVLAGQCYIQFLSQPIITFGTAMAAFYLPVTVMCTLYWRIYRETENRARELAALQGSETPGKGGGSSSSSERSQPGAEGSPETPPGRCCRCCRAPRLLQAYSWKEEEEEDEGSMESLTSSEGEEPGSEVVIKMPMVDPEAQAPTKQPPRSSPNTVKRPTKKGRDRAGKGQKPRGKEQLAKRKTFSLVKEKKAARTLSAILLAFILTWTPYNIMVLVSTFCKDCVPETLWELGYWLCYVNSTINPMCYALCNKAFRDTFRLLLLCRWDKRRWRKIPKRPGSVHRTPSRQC

[3] = target: Muscarinic acetylcholine receptor M3 (Homo sapiens, UniProt P20309)
Sequence of Muscarinic acetylcholine receptor M3 (P20309 whole entry): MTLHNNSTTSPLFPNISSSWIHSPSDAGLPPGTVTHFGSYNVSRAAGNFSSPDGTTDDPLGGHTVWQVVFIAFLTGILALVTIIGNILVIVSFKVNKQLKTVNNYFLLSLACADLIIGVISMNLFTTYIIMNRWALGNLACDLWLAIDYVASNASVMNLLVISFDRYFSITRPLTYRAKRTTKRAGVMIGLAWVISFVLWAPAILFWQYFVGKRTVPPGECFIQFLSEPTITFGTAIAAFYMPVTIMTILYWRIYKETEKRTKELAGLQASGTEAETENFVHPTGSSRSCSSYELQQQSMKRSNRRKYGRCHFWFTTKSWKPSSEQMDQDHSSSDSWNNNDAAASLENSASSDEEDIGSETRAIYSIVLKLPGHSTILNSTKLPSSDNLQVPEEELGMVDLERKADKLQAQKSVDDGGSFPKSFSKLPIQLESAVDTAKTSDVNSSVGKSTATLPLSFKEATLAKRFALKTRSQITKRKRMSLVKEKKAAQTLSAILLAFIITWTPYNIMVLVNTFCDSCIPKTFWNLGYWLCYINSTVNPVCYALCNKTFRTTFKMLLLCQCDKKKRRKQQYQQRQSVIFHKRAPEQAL

Progesterone receptor = target: T3, Progesterone receptor (Homo sapiens, UniProt P06401); assay type: functional
T3 sequence (P06401 whole entry): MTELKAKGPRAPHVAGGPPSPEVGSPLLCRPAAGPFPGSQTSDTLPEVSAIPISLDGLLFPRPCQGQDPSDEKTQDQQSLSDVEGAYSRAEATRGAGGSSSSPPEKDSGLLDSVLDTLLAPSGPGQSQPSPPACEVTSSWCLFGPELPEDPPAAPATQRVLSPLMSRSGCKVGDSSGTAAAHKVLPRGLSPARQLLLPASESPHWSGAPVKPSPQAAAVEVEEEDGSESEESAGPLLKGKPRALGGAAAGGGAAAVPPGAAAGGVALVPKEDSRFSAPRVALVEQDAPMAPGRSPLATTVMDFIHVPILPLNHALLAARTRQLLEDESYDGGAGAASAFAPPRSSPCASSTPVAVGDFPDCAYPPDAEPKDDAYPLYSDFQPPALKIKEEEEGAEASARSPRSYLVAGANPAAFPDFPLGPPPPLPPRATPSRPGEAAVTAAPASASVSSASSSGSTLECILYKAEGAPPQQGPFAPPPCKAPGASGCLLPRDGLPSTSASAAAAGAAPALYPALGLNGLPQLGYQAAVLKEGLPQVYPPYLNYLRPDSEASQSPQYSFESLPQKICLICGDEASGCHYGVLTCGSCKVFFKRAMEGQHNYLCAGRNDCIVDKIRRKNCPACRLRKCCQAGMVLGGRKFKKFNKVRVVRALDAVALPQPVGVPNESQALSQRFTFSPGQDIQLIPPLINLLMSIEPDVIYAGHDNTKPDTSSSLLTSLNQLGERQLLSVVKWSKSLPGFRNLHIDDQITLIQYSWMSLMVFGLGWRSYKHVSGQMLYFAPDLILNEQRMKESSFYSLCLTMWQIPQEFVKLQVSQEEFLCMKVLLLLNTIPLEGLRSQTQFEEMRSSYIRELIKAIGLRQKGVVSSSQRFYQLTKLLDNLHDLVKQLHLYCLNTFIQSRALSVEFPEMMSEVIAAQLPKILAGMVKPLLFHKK

[4] = target: T4, Alpha-1A adrenergic receptor (Homo sapiens, UniProt P35348); assay type: functional, cell-based
T4 sequence (P35348 whole entry): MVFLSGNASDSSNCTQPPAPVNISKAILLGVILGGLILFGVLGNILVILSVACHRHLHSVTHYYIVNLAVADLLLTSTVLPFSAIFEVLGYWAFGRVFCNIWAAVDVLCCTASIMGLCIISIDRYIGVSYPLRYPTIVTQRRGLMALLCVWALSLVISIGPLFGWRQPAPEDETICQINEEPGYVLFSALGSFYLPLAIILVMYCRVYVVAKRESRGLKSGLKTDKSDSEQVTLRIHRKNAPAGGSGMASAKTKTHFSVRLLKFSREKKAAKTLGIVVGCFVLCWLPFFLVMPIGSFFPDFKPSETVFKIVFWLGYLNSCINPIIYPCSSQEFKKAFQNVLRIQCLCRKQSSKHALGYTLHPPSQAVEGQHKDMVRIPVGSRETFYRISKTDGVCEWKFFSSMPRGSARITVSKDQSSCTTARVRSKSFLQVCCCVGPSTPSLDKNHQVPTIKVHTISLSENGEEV

[5] = target: Voltage-dependent L-type calcium channel subunit alpha-1C (Rattus norvegicus, UniProt P22002); assay type: functional
Sequence of Voltage-dependent L-type calcium channel subunit alpha-1C (P22002 whole entry): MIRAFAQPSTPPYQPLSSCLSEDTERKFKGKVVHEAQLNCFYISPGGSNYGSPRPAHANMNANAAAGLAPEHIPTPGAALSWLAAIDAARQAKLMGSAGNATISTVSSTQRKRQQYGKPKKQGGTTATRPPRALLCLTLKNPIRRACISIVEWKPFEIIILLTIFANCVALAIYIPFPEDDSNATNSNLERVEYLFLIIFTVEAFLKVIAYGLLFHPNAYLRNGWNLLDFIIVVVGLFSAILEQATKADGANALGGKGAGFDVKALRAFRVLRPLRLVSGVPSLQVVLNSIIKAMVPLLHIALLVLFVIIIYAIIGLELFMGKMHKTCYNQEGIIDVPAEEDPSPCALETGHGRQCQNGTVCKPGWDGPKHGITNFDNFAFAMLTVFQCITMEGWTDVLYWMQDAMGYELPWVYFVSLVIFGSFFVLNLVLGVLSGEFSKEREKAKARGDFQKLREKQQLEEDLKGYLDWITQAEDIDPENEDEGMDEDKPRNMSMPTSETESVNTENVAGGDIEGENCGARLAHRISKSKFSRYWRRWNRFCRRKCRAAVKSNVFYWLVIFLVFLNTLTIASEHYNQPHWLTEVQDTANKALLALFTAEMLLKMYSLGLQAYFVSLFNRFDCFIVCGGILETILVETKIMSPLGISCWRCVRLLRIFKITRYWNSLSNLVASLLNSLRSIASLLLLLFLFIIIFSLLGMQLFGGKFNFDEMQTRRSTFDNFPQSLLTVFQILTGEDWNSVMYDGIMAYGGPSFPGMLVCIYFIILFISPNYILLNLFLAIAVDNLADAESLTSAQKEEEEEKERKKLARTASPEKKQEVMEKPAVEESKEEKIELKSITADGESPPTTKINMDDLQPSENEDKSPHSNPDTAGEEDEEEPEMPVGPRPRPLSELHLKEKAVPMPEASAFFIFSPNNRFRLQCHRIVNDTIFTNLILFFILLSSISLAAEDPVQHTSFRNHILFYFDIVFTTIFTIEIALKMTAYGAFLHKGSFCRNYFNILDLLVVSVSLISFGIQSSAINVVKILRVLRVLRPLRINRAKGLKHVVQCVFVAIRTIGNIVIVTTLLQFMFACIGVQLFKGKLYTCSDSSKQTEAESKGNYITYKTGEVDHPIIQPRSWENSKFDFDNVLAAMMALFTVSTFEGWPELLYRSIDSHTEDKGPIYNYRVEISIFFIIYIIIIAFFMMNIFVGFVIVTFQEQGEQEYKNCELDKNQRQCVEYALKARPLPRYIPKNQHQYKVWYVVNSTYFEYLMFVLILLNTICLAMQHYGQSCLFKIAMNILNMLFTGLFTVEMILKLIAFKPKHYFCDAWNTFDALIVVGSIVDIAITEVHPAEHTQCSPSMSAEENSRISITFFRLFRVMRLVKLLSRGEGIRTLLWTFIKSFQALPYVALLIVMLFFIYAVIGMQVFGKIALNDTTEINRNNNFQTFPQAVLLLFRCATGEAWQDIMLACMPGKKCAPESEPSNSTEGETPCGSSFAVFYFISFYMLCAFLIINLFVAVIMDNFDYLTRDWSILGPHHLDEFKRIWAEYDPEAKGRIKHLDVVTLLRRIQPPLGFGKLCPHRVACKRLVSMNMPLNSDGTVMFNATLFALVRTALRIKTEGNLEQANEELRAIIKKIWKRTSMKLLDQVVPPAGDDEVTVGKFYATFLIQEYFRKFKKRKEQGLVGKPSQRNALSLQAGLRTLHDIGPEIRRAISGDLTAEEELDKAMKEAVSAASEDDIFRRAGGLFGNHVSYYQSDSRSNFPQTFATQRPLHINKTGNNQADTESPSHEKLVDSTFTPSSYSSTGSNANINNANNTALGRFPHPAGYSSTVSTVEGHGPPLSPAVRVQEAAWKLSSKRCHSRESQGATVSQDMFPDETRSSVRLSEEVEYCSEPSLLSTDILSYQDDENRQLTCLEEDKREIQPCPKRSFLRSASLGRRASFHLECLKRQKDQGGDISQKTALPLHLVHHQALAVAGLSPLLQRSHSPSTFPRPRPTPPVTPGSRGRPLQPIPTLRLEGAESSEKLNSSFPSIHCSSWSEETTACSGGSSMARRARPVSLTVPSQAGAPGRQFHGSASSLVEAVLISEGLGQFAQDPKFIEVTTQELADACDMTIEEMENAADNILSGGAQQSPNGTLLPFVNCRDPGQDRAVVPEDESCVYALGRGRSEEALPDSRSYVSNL

[6] = target: T4, Alpha-1A adrenergic receptor
Cannabinoid receptor 1 = Cannabinoid receptor 1 (Homo sapiens, UniProt P21554)
Sequence of Cannabinoid receptor 1 (P21554 whole entry): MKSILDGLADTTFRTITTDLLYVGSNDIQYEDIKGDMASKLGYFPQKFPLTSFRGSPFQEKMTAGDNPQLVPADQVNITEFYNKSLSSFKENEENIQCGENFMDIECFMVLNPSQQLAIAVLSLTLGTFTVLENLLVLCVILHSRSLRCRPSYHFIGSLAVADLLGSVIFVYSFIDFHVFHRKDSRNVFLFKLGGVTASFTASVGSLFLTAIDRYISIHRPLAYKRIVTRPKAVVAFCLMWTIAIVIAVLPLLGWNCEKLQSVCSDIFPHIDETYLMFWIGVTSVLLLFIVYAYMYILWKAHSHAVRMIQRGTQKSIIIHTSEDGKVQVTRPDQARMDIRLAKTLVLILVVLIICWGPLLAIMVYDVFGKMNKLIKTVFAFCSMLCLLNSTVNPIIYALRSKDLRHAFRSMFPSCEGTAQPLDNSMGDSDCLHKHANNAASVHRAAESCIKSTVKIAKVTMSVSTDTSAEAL

Melanocortin receptor 4 = Melanocortin receptor 4 (Homo sapiens, UniProt P32245)
Sequence of Melanocortin receptor 4 (P32245 whole entry): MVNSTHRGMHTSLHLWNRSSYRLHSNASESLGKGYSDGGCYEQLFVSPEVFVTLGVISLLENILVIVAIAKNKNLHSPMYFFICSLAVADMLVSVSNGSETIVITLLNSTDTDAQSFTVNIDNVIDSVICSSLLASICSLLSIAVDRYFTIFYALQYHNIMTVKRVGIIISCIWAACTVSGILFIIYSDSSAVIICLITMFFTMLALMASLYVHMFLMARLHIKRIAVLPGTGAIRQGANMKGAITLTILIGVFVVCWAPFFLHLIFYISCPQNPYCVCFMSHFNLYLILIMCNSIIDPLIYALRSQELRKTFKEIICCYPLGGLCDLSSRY

Mu-type opioid receptor = Mu-type opioid receptor (Homo sapiens, UniProt P35372)
Sequence of Mu-type opioid receptor (P35372 whole entry): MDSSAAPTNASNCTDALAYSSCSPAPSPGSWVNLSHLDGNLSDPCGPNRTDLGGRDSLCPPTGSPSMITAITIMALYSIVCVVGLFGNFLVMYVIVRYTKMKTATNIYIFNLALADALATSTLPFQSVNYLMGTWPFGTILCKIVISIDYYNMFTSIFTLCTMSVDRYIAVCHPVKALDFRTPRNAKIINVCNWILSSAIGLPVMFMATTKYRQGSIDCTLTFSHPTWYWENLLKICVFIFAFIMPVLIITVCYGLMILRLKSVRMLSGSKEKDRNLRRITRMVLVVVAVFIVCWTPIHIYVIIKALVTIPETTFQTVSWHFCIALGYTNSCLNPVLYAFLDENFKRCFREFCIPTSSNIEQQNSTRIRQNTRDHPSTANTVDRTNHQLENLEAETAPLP
Also: assay procedure not described here.

Sequence of Vasopressin V1a receptor (P37288 whole entry): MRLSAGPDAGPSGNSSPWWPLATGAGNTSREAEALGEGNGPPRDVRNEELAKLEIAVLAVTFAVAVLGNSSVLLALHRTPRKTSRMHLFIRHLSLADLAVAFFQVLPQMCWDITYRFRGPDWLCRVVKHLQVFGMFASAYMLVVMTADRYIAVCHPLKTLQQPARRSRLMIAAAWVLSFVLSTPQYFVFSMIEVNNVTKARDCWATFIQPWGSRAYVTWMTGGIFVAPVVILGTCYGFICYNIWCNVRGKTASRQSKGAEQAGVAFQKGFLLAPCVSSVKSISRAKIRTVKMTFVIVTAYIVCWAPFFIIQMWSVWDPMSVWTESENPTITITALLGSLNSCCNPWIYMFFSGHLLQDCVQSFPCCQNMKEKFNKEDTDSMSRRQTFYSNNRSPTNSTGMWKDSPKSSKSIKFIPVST
Sequence of Beta-2 adrenergic receptor (P07550 whole entry): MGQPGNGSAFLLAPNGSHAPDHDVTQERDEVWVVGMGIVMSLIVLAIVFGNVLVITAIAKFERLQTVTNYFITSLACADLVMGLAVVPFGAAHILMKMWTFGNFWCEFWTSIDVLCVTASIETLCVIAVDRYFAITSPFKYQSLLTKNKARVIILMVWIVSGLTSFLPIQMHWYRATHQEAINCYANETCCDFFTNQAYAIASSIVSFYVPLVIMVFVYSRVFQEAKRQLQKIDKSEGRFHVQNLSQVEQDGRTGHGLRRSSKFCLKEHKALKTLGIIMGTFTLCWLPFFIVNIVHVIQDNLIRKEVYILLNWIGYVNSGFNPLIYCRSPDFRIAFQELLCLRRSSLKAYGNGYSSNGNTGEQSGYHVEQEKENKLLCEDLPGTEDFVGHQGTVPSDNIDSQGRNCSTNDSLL

| SMILES | AC50 [1] [µM] | AC50 (Vasopressin V1a receptor) [µM] | AC50 (B2 bradykinin receptor) [µM] | AC50 [2] [µM] | AC50 [3] [µM] | AC50 (Progesterone receptor) [µM] | AC50 [4] [µM] | AC50 [5] [µM] | AC50 [6] [µM] | AC50 (Cannabinoid receptor 1) [µM] | AC50 (Melanocortin receptor 4) [µM] | AC50 (Mu-type opioid receptor) [µM] |
| --- | --- | --- | --- | --- | --- | --- | --- | --- | --- | --- | --- | --- |
| C=C1CC[C@@]2(O)[C@H]3Cc4ccc(O)c5c4[C@@]2(CCN3CC2CC2)[C@H]1O5 | > 30 | > 30 | > 30 | > 30 | > 30 | > 30 |  |  |  |  |  |  |
| Nc1ncnc2c1ncn2[C@@H]1O[C@H](COP(=O)(O)O)[C@@H](O)[C@H]1O [ADENOSINE PHOSPHATE] | 9.5 | > 30 | > 30 | > 30 | > 30 | > 30 | > 30 |  |  |  |  |  |
| CCCC(CCC)C(=O)O[C@H]1C[C@H]2CC[C@@H](C1)[N+]2(C)C [ANISOTROPINE] | > 30 | > 30 | > 30 | 0.17 | 0.036 | > 30 | 19 |  |  |  |  |  |
| CCC(C(=O)O)c1ccc(CC(C)C)cc1 (stereo unspecified) [BUTIBUFEN] | > 30 | > 30 | > 30 | > 30 | > 30 | > 30 | > 30 | > 30 |  |  |  |  |
| CCCCCOC(=O)Nc1nc(=O)n([C@@H]2O[C@H](C)[C@@H](O)[C@H]2O)cc1F [CAPECITABINE] | > 30 | > 30 | > 30 | > 30 | > 30 | > 30 | > 30 |  |  |  |  |  |
| O=C1CN=C(c2ccccc2)c2cc(Cl)ccc2N1CC(F)(F)F [HALAZEPAM] | > 30 | > 30 | > 30 | > 30 | > 30 | > 30 | > 30 |  |  |  |  |  |
| CCC1(C2=CCCCCC2)C(=O)NC(=O)NC1=O [HEPTABARBITAL] |  | > 10 | > 10 | > 10 | > 30 | > 10 | > 30 | > 10 | > 10 | > 10 | > 10 | > 30 |
| CCCCCN(C)CCC(O)(P(=O)(O)O)P(=O)(O)O [IBANDRONIC ACID] |  | > 30 | > 30 | > 30 | > 30 | > 30 | > 30 | > 30 | > 10 | > 30 | > 30 | > 30 |
| C1=Cc2cccc(OCC3CNCCO3)c2C1 (stereo unspecified) [INDELOXAZINE] | > 30 | > 30 | > 30 | > 30 | > 30 | > 30 | > 30 | > 30 |  |  |  |  |
| COC(=O)C1=C(C)NC(C)=C(C(=O)OC(C)C)C1c1cccc2nonc12 (stereo unspecified) [ISRADIPINE] |  | > 30 | > 30 | > 30 | > 30 | > 30 | > 30 | 0.0045 | > 30 | > 10 | > 30 | > 30 |
| O=C(O)Cc1cn(-c2ccccc2)nc1-c1ccc(Cl)cc1 [LONAZOLAC] | > 30 | > 30 | > 30 | > 30 | > 30 | > 30 | > 30 | > 30 |  |  |  |  |
| C#C[C@]1(O)CC[C@H]2[C@@H]3CCC4=CCCC[C@@H]4[C@H]3CC[C@@]21C [LYNESTRENOL] | > 30 | > 30 | > 30 | > 30 | > 30 | 5.2 | > 30 | > 30 |  |  |  |  |
| Cc1cccc(C)c1NC(=O)C1CCCCN1C (stereo unspecified) [MEPIVACAINE] | > 30 |  | > 30 |  |  | > 30 | > 30 |  |  |  |  |  |
| C[C@H]1C[C@@H]2[C@H]([C@@H](O)C[C@@]3(C)[C@H]2CC[C@]3(O)C(=O)COC(=O)CCC(=O)O)[C@@]2(C)C=CC(=O)C=C12 [METHYLPREDNISOLONE HEMISUCCINATE] | > 30 | > 30 | > 30 | > 30 | > 30 | > 30 |  |  |  |  |  |  |
| C[C@]12CCC(=O)C=C1CC[C@@H]1[C@@H]2CC[C@@]2(C)[C@H]1CC[C@]2(C)O [METHYLTESTOSTERONE] | > 30 |  | > 30 |  |  | 0.2 | 27 | > 30 |  |  |  |  |
| CCCCC(C)(O)C/C=C/[C@H]1[C@H](O)CC(=O)[C@@H]1CCCCCCC(=O)OC (stereo partly specified) [MISOPROSTOL] | > 30 | > 30 | > 30 | > 30 | > 30 | > 30 |  |  |  |  |  |  |
| COc1c(C)c2c(c(O)c1C/C=C(\C)CCC(=O)OCCN1CCOCC1)C(=O)OC2 [MYCOPHENOLATE MOFETIL] | > 30 |  | > 30 |  |  | > 30 | > 30 | > 30 |  |  |  |  |
| CCCCCCC(C)(C)c1cc(O)c2c(c1)OC(C)(C)C1CCC(=O)CC21 (stereo unspecified) [NABILONE] | > 30 | > 30 | > 10 | > 30 | > 30 | > 30 | > 30 |  |  |  |  |  |
| CCCOc1ccc(C(=O)OCCN(CC)CC)cc1N [PROPARACAINE] | > 30 |  | > 30 |  |  | > 30 | > 30 |  |  |  |  |  |
| Nc1nc2ccc(OC(F)(F)F)cc2s1 [RILUZOLE] | > 30 | > 30 | > 30 |  |  | > 30 | > 30 |  |  |  |  |  |
| Cc1c(Cl)cccc1Nc1ccccc1C(=O)O [TOLFENAMIC ACID] | > 30 | > 30 | > 30 | > 30 | > 30 | > 30 | 9.5 | > 30 |  |  |  |  |
| COc1ccc(C(=O)N2CCN(c3ccc4c(c3)CCC(=O)N4)CC2)cc1OC [VESNARINONE] | > 30 | > 30 | > 30 | > 30 | > 30 | 12 | > 30 |  |  |  |  |  |
